These results are taken from DBAASP.

Among the test systems are Edwardsiella tarda; Pseudomonas aeruginosa; Aeromonas hydrophila; Bacillus subtilis; Staphylococcus aureus; Candida albicans; Escherichia coli; Escherichia coli 850; Escherichia coli K-12; Escherichia coli 780; Acinetobacter baumannii; Candida albicans CA14; Bacillus subtilis 168; Escherichia coli IP76-24; Serratia marcescens; Cryptococcus neoformans; Escherichia coli ML-35; Streptococcus agalactiae; Escherichia coli D21; Enterococcus faecium; Bacillus megaterium Bm11.

Holding throughout (assay): ≥ marks a high value that may be exact or a test limit, other limits are often not marked, values filed in µg/mL are converted to µM
The subject of experiment [1] is Acinetobacter baumannii ATCC 19606.
Experiment [2] concerns Staphylococcus aureus 936.
For experiment [3], the system named is Enterococcus faecalis ATCC 29212.
Experiment [4] concerns Bacillus subtilis ATCC 23857.
For experiment [5], the system named is Staphylococcus aureus ATCC 25923.
Experiment [6] has as its system Saccharomyces cerevisiae BY4741.
The subject of experiment [7] is Pseudomonas aeruginosa ATCC 27853.
The subject of experiment [8] is Staphylococcus aureus 725.
Experiment [9] concerns Staphylococcus aureus RN4220.
Experiment [10] concerns Klebsiella pneumoniae ATCC 700603.
Experiment [11] has as its system Pseudomonas aeruginosa 2760.
Experiment [12] relates to Escherichia coli ATCC 25922.
The test system of experiment [13] is Cryptococcus neoformans IP960-67.
Experiment [14] deals with Nocardia brasiliensis IP16-80.
In experiment [15] the test system is Trichophyton simii IP1063-74.
Experiment [16] relates to Aeromonas caviae IP67-16T.
For experiment [17], the system named is Enterococcus faecalis IP103214.
In experiment [18] the test system is Aspergillus fumigatus IP1025-70.
Experiment [19] concerns Candida albicans IP884-65.
The test system of experiment [20] is Saccharomyces cerevisiae IP118079.
Experiment [21] has as its system Aspergillus niger IP218-53.
Experiment [22] has as its system Staphylococcus aureus IP76-25.
For experiment [23], the system named is Pseudomonas aeruginosa KCTC 1637.
For experiment [24], the system named is Escherichia coli O18:K1:H7 Bort.
In experiment [25] the test system is Escherichia coli KCTC 1682.
The test system of experiment [26] is Serratia marcescens ATCC 8100.
Experiment [27] concerns Staphylococcus epidermidis ATCC 12228.
Experiment [28] deals with Bacillus subtilis KCTC 3068.
The subject of experiment [29] is Staphylococcus aureus Cowan 1.
Experiment [30] has as its system Staphylococcus epidermidis ATCC 35984.
Experiment [31] deals with Staphylococcus aureus KCTC 1621.
Experiment [32] relates to Salmonella enterica subsp. enterica serovar Typhimurium ATCC 14028.
In experiment [33] the test system is Staphylococcus epidermidis KCTC 1917.
Experiment [34] has as its system Salmonella typhimurium KCTC 1926.

In brackets after ≈: the same amount, converted by molar mass. Several values for one entry are separate records, joined by “and”; a condition that tells them apart may be missing. Identical values can stand only once. Bounds are passed on as bounds.

In general, MIC refers to the lowest concentration found to suppress growth. Read a high MIC as a less susceptible organism. Consider `CC[C@H](C)[C@H](NC(=O)[C@H](CC(C)C)NC(=O)CNC(=O)[C@H](Cc1cnc[nH]1)NC(=O)[C@@H](NC(=O)[C@H](Cc1cnc[nH]1)NC(=O)[C@H](CCCCN)NC(=O)CNC(=O)[C@@H](NC(=O)[C@H](CO)NC(=O)[C@H](Cc1ccccc1)NC(=O)[C@H](CC(C)C)NC(=O)CNC(=O)CNC(=O)[C@@H](NC(=O)[C@@H](NC(=O)[C@H](Cc1cnc[nH]1)NC(=O)[C@H](Cc1cnc[nH]1)NC(=O)[C@@H](NC(=O)[C@@H](N)Cc1ccccc1)[C@@H](C)CC)[C@@H](C)CC)[C@@H](C)CC)C(C)C)[C@@H](C)CC)C(=O)N[C@@H](Cc1cnc[nH]1)C(=O)NCC(=O)N[C@@H](Cc1cnc[nH]1)C(=O)O` [FIHHIIGGLFSVGKHIHGLIHGH], for which the MIC is ≥ 160 µM in the experiment on Edwardsiella tarda; 35 µM (≈ 88.4 µg/mL) against Pseudomonas aeruginosa; ≥ 160 µM against Aeromonas hydrophila; 3 µM (≈ 7.58 µg/mL) against Bacillus subtilis; 5 µM (≈ 12.6 µg/mL) with Staphylococcus aureus; 20 µM (≈ 50.5 µg/mL) in the experiment with Candida albicans. The MIC against Escherichia coli turned out to be 6.7 µM (≈ 16.9 µg/mL).

Turning to `CC[C@H](C)[C@H](NC(=O)[C@H](CCCCN)NC(=O)[C@H](CCCCN)NC(=O)[C@H](C)NC(=O)[C@H](CC(C)C)NC(=O)[C@H](C)NC(=O)[C@H](C)NC(=O)[C@H](CC(C)C)NC(=O)[C@H](C)NC(=O)[C@H](CCCCN)NC(=O)[C@H](CC(C)C)NC(=O)[C@H](CC(N)=O)NC(=O)[C@@H](NC(=O)[C@H](CCCCN)NC(=O)CNC(=O)[C@H](CC(C)C)NC(=O)[C@H](CC(C)C)NC(=O)[C@H](Cc1ccc(O)cc1)NC(=O)CNC(=O)[C@H](C)N)[C@@H](C)CC)C(=O)N[C@@H](CC(C)C)C(=O)O` [AGYLLGKINLKALAALAKKIL], the MIC in experiment [1] came out at 3.67 µM (≈ 8 µg/mL); in experiment [2] it was 7.33 µM (≈ 16 µg/mL); against Escherichia coli 850 it was 7.33 µM (≈ 16 µg/mL); in [3], 14.7 µM (≈ 32 µg/mL); in experiment [4], 3.67 µM (≈ 8 µg/mL); with Escherichia coli K-12, 10 µM (≈ 21.8 µg/mL). Besides, the MIC in experiment [5] came to 7.33 µM (≈ 16 µg/mL); in [6], 8 µM (≈ 17.5 µg/mL); in [7] it was 14.7 µM (≈ 32 µg/mL); in the experiment with Escherichia coli 780 it was 7.33 µM (≈ 16 µg/mL); against Acinetobacter baumannii it was 3.67 µM (≈ 8 µg/mL); against Candida albicans CA14, 4 µM (≈ 8.73 µg/mL). The MIC in experiment [8] stood at 7.33 µM (≈ 16 µg/mL); in experiment [9] it was 4 µM (≈ 8.73 µg/mL); in [10], 14.7 µM (≈ 32 µg/mL); in the experiment on Bacillus subtilis 168, 10 µM (≈ 21.8 µg/mL); in experiment [11], 7.33 µM (≈ 16 µg/mL); in [12], 7.33 µM (≈ 16 µg/mL).

Take `CC[C@H](C)[C@H](NC(=O)CNC(=O)[C@H](CCCCN)NC(=O)[C@H](CC(C)C)NC(=O)[C@H](CCSC)NC(=O)[C@H](CC(N)=O)NC(=O)[C@H](CCCCN)NC(=O)[C@H](Cc1c[nH]c2ccccc12)NC(=O)[C@H](CC(C)C)NC(=O)[C@H](C)N)C(N)=O` [ALWKNMLKGI]: the MIC in experiment [13] is 25 µM (≈ 29.3 µg/mL); in experiment [14] it was ≥ 150 µM; in experiment [15], ≥ 150 µM; in experiment [16], 7 µM (≈ 8.21 µg/mL); in experiment [17], 7 µM (≈ 8.21 µg/mL); in experiment [18], ≥ 150 µM. In addition, the MIC was ≥ 150 µM in experiment [19]; 14 µM (≈ 16.4 µg/mL) with Escherichia coli IP76-24; ≥ 50 µM in experiment [20]; ≥ 150 µM in [21]; ≥ 150 µM in experiment [22].

`CC(C)C[C@H](NC(=O)[C@H](CCCCN)NC(=O)[C@H](CCCCN)NC(=O)[C@H](Cc1ccccc1)NC(=O)[C@H](CC(C)C)NC(=O)[C@H](CCCCN)NC(=O)[C@H](CCCCN)NC(=O)[C@H](Cc1ccccc1)NC(=O)[C@H](CCCCN)NC(=O)[C@H](CCCCN)NC(=O)[C@H](CCCN=C(N)N)NC(=O)[C@H](Cc1ccccc1)NC(=O)[C@H](CCCN=C(N)N)NC(=O)[C@H](CCCCN)NC(=O)[C@H](Cc1ccccc1)NC(=O)[C@H](CCCN=C(N)N)NC(=O)CN)C(=O)N[C@@H](CO)C(N)=O` [GRFKRFRKKFKKLFKKLS]: the MIC in experiment [23] is 4 µM (≈ 9.37 µg/mL); in [24], 8 µM (≈ 18.7 µg/mL); with Serratia marcescens it was 4 µM (≈ 9.37 µg/mL); in [25] it was 4 µM and 2.83 µM; with Cryptococcus neoformans, 4 µM (≈ 9.37 µg/mL); in the experiment with Escherichia coli ML-35 it was 4 µM (≈ 9.37 µg/mL). Moreover, the MIC in [5] is 2 µM and 4 µM; in [26] it was 2 µM (≈ 4.68 µg/mL); against Streptococcus agalactiae, 1 µM (≈ 2.34 µg/mL); against Escherichia coli D21, 4 µM (≈ 9.37 µg/mL); in experiment [27], 1 µM (≈ 2.34 µg/mL); in experiment [7], 2 µM (≈ 4.68 µg/mL). In addition, the MIC in [28] was 4 µM (≈ 9.37 µg/mL); in experiment [29], 2 µM (≈ 4.68 µg/mL); in the experiment with Enterococcus faecium it was 8 µM (≈ 18.7 µg/mL); in [30], 2 µM (≈ 4.68 µg/mL); in experiment [31], 4 µM and 2.83 µM; in [32], 4 µM (≈ 9.37 µg/mL). For the same compound, the MIC against Bacillus megaterium Bm11 came out at 2 µM (≈ 4.68 µg/mL); in [33], 4 µM (≈ 9.37 µg/mL); in the experiment with Staphylococcus aureus, 4 µM (≈ 9.37 µg/mL); in experiment [12], 2 µM (≈ 4.68 µg/mL); in the experiment on Candida albicans, 16 µM (≈ 37.5 µg/mL); in experiment [34] it was 2 µM (≈ 4.68 µg/mL).
